Several values for one entry are separate records, joined by “and”; a condition that tells them apart may be missing. Equal values may be shown once. Inconclusive results and toxic doses are left out.
Tested on: CD2F1 mice, L1210 leukemia ip, survival T/C
Experiment: NCI In Vivo Anticancer Drug Screen. Data for tumor model L1210 Leukemia (intraperitoneal) in CD2F1 (CDF1) mice
Settings: higher = longer survival
Method in brief: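 In this screen, transplantable tumors were grown in mice given either the compound or its vehicle. Results were expressed as the treated measurement relative to the control measurement.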

[1] = endpoint: mean survival time, dose: 100.0 mg/kg/injection, schedule: Q01DX001 (ip), vehicle: saline with Tween-80
[2] = endpoint: mean survival time, dose: 200.0 mg/kg/injection, schedule: Q01DX001 (ip), vehicle: saline with Tween-80
[3] = endpoint: mean survival time, dose: 400.0 mg/kg/injection, schedule: Q01DX001 (ip), vehicle: saline with Tween-80
[4] = endpoint: mean survival time, dose: 75.0 mg/kg/injection, schedule: Q01DX001 (ip), vehicle: saline
[5] = endpoint: mean survival time, dose: 300.0 mg/kg/injection, schedule: Q01DX001 (ip), vehicle: saline
[6] = endpoint: mean survival time, dose: 100.0 mg/kg/injection, schedule: Q04DX003 (ip), vehicle: saline
[7] = endpoint: mean survival time, dose: 200.0 mg/kg/injection, schedule: Q04DX003 (ip), vehicle: saline
[8] = endpoint: mean survival time, dose: 400.0 mg/kg/injection, schedule: Q04DX003 (ip), vehicle: saline
[9] = endpoint: mean survival time, dose: 100.0 mg/kg/injection, schedule: Q04DX003 (ip), vehicle: saline with Tween-80
[10] = endpoint: mean survival time, dose: 200.0 mg/kg/injection, schedule: Q04DX003 (ip), vehicle: saline with Tween-80
[11] = endpoint: mean survival time, dose: 400.0 mg/kg/injection, schedule: Q04DX003 (ip), vehicle: saline with Tween-80

NC(=S)c1ncn(C2OC(CO)C(O)C2O)c1N (stereo not given)
T/C (endpoint: mean survival time, dose: 100.0 mg/kg/injection, schedule: Q04DX002 (ip), vehicle: saline): 115 % of control | T/C (endpoint: mean survival time, dose: 200.0 mg/kg/injection, schedule: Q04DX002 (ip), vehicle: saline): 110 % of control | T/C (endpoint: median survival time, dose: 25.0 mg/kg/injection, schedule: Q01DX005 (ip), vehicle: saline with Tween-80): 111 % of control | T/C (endpoint: median survival time, dose: 25.0 mg/kg/injection, schedule: Q01DX005 (ip), vehicle: saline): 113 % of control | T/C (endpoint: median survival time, dose: 25.0 mg/kg/injection, schedule: Q01DX009 (ip), vehicle: saline with Tween-80): 122 % of control | T/C (endpoint: median survival time, dose: 25.0 mg/kg/injection, schedule: Q01DX009 (ip), vehicle: saline): 115 % of control | T/C (endpoint: median survival time, dose: 50.0 mg/kg/injection, schedule: Q01DX005 (ip), vehicle: saline with Tween-80): 120 % of control | T/C (endpoint: median survival time, dose: 100.0 mg/kg/injection, schedule: Q01DX005 (ip), vehicle: saline): 166 % of control | T/C (endpoint: median survival time, dose: 100.0 mg/kg/injection, schedule: Q01DX009 (ip), vehicle: saline with Tween-80): 160 % of control | T/C (endpoint: median survival time, dose: 200.0 mg/kg/injection, schedule: Q01DX005 (ip), vehicle: saline with Tween-80): 171 % of control | T/C (endpoint: median survival time, dose: 200.0 mg/kg/injection, schedule: Q01DX005 (ip), vehicle: saline): 166 % of control | T/C (endpoint: median survival time, dose: 200.0 mg/kg/injection, schedule: Q01DX009 (ip), vehicle: saline with Tween-80): 159 % of control | T/C (endpoint: median survival time, dose: 200.0 mg/kg/injection, schedule: Q01DX009 (ip), vehicle: saline): 157 % of control | T/C (endpoint: median survival time, dose: 400.0 mg/kg/injection, schedule: Q01DX005 (ip), vehicle: saline with Tween-80): 161 % of control | T/C (endpoint: median survival time, dose: 400.0 mg/kg/injection, schedule: Q01DX005 (ip), vehicle: saline): 180 % of control | T/C (endpoint: median survival time, dose: 400.0 mg/kg/injection, schedule: Q01DX009 (ip), vehicle: saline with Tween-80): 160 % of control | T/C (endpoint: median survival time, dose: 400.0 mg/kg/injection, schedule: Q01DX009 (ip), vehicle: saline): 155 % of control

C=CC[P+](c1ccccc1)(c1ccccc1)c1ccccc1
T/C (endpoint: mean survival time, dose: 6.25 mg/kg/injection, schedule: Q01DX001 (ip), vehicle: saline): 101 % of control | T/C (endpoint: mean survival time, dose: 12.5 mg/kg/injection, schedule: Q01DX001 (ip), vehicle: saline): 100 % of control and 112 % of control | T/C (endpoint: mean survival time, dose: 25.0 mg/kg/injection, schedule: Q01DX001 (ip), vehicle: saline): 96 % of control and 103 % of control

O=c1ccn(C2OC(CO)C(O)C2O)c(=O)[n]1[Hg][c]1ccccc1 (stereo not given)
T/C (endpoint: median survival time, dose: 0.79 mg/kg/injection, schedule: Q01DX005 (ip), vehicle: saline): 116 % of control and 111 % of control | T/C (endpoint: median survival time, dose: 1.56 mg/kg/injection, schedule: Q01DX005 (ip), vehicle: saline): 100 % of control | T/C (endpoint: median survival time, dose: 3.12 mg/kg/injection, schedule: Q01DX005 (ip), vehicle: saline): 100 % of control and 101 % of control and 103 % of control | T/C (endpoint: median survival time, dose: 6.25 mg/kg/injection, schedule: Q01DX005 (ip), vehicle: saline): 100 % of control and 101 % of control and 107 % of control | T/C (endpoint: median survival time, dose: 12.5 mg/kg/injection, schedule: Q01DX005 (ip), vehicle: saline): 101 % of control

CN(CC(=O)O)C(=N)N
T/C (endpoint: mean survival time, dose: 250.0 mg/kg/injection, schedule: Q01DX Z (ip), vehicle: saline): 96 % of control | T/C (endpoint: mean survival time, dose: 500.0 mg/kg/injection, schedule: Q01DX Z (ip), vehicle: saline): 96 % of control | T/C (endpoint: mean survival time, dose: 1000.0 mg/kg/injection, schedule: Q01DX Z (ip), vehicle: saline): 100 % of control

CCOC(=O)C(CC)(C(=O)OCC)c1c(Cl)c(=O)oc2ccc(Cl)cc12
T/C [1]: 100 % of control | T/C [2]: 97 % of control | T/C [3]: 91 % of control

CC(O)CC1CCCC(CC(C)O)N1 (stereo not given)
T/C (endpoint: mean survival time, dose: 5.0 mg/kg/injection, schedule: Q01DX001 (ip), vehicle: saline): 103 % of control | T/C (endpoint: mean survival time, dose: 10.0 mg/kg/injection, schedule: Q01DX001 (ip), vehicle: saline): 97 % of control | T/C (endpoint: mean survival time, dose: 20.0 mg/kg/injection, schedule: Q01DX001 (ip), vehicle: saline): 103 % of control | T/C (endpoint: mean survival time, dose: 40.0 mg/kg/injection, schedule: Q01DX001 (ip), vehicle: saline): 105 % of control | T/C [4]: 98 % of control | T/C [5]: 102 % of control

NC(=O)c1ncn(C2OC(CO)C(O)C2O)n1 (stereo not given)
T/C (endpoint: mean survival time, dose: 100.0 mg/kg/injection, schedule: Q01DX009 (ip), vehicle: saline with Tween-80): 124 % of control | T/C [6]: 100 % of control | T/C (endpoint: mean survival time, dose: 200.0 mg/kg/injection, schedule: Q01DX009 (ip), vehicle: saline with Tween-80): 110 % of control | T/C [7]: 115 % of control | T/C (endpoint: mean survival time, dose: 400.0 mg/kg/injection, schedule: Q01DX009 (ip), vehicle: saline with Tween-80): 93 % of control | T/C [8]: 110 % of control

CC1(C)C/C(=C\c2ccc([N+](=O)[O-])cc2)C(=O)c2ccccc21
T/C (endpoint: mean survival time, dose: 12.5 mg/kg/injection, schedule: Q01DX009 (ip), vehicle: Klucel (hydroxypropylcellulose) (HPC)): 102 % of control | T/C (endpoint: mean survival time, dose: 25.0 mg/kg/injection, schedule: Q01DX009 (ip), vehicle: Klucel (hydroxypropylcellulose) (HPC)): 98 % of control | T/C (endpoint: mean survival time, dose: 50.0 mg/kg/injection, schedule: Q01DX009 (ip), vehicle: Klucel (hydroxypropylcellulose) (HPC)): 96 % of control | T/C (endpoint: mean survival time, dose: 100.0 mg/kg/injection, schedule: Q01DX009 (ip), vehicle: Klucel (hydroxypropylcellulose) (HPC)): 98 % of control | T/C (endpoint: mean survival time, dose: 200.0 mg/kg/injection, schedule: Q01DX009 (ip), vehicle: Klucel (hydroxypropylcellulose) (HPC)): 93 % of control | T/C (endpoint: mean survival time, dose: 400.0 mg/kg/injection, schedule: Q01DX009 (ip), vehicle: Klucel (hydroxypropylcellulose) (HPC)): 94 % of control

Cc1cc2nc(N)n(C3OC(CO)C(O)C3O)c2cc1C (stereo not given)
T/C [4]: 108 % of control | T/C (endpoint: mean survival time, dose: 150.0 mg/kg/injection, schedule: Q01DX001 (ip), vehicle: saline): 105 % of control | T/C [5]: 103 % of control

CC(CCC(=O)O)(c1ccc(O)cc1)c1ccc(O)cc1
T/C (endpoint: mean survival time, dose: 100.0 mg/kg/injection, schedule: Q01DX009 (ip), vehicle: other): 91 % of control | T/C (endpoint: mean survival time, dose: 200.0 mg/kg/injection, schedule: Q01DX009 (ip), vehicle: other): 101 % of control | T/C (endpoint: mean survival time, dose: 400.0 mg/kg/injection, schedule: Q01DX009 (ip), vehicle: other): 97 % of control

COC(=O)/C=C(/Nc1ccccc1C(=O)O)C(=O)OC
T/C [6]: 89 % of control | T/C [7]: 101 % of control | T/C [8]: 90 % of control

NC(=O)/C=C/C(=O)NC(=O)Cc1ccccc1
T/C (endpoint: mean survival time, dose: 3.0 mg/kg/injection, schedule: Q01DX009 (ip), vehicle: saline with Tween-80): 97 % of control | T/C (endpoint: mean survival time, dose: 6.0 mg/kg/injection, schedule: Q01DX009 (ip), vehicle: saline with Tween-80): 98 % of control | T/C (endpoint: mean survival time, dose: 12.0 mg/kg/injection, schedule: Q01DX009 (ip), vehicle: saline with Tween-80): 92 % of control

CC(=O)NC1C(OC(C)=O)OC(COC(c2ccccc2)(c2ccccc2)c2ccccc2)C(O)C1OC(C)=O (stereo not given)
T/C (endpoint: mean survival time, dose: 12.5 mg/kg/injection, schedule: Q04DX002 (ip), vehicle: saline with Tween-80): 93 % of control | T/C (endpoint: mean survival time, dose: 12.5 mg/kg/injection, schedule: Q04DX003 (ip), vehicle: saline with Tween-80): 103 % of control | T/C (endpoint: mean survival time, dose: 25.0 mg/kg/injection, schedule: Q04DX003 (ip), vehicle: saline with Tween-80): 95 % of control | T/C (endpoint: mean survival time, dose: 50.0 mg/kg/injection, schedule: Q01DX001 (ip), vehicle: saline with Tween-80): 88 % of control | T/C (endpoint: mean survival time, dose: 50.0 mg/kg/injection, schedule: Q04DX002 (ip), vehicle: saline with Tween-80): 91 % of control | T/C (endpoint: mean survival time, dose: 50.0 mg/kg/injection, schedule: Q04DX003 (ip), vehicle: saline with Tween-80): 87 % of control | T/C [1]: 87 % of control | T/C (endpoint: mean survival time, dose: 100.0 mg/kg/injection, schedule: Q04DX002 (ip), vehicle: saline with Tween-80): 88 % of control | T/C [9]: 93 % of control | T/C [2]: 88 % of control | T/C [3]: 90 % of control

O=C(O)c1cccc(-c2c3ccc(=O)cc-3oc3cc(O)ccc23)c1
T/C [9]: 96 % of control | T/C [10]: 100 % of control | T/C [11]: 96 % of control

CN(C)c1ccc(N=Nc2cccnc2)cc1
T/C [1]: 97 % of control | T/C [2]: 97 % of control

NN=C1c2ccccc2-c2ccccc21
T/C [9]: 94 % of control | T/C [10]: 86 % of control | T/C [11]: 96 % of control

O=CC(O)C(O)C(O)CO (stereo not given)
T/C (endpoint: mean survival time, dose: 100.0 mg/kg/injection, schedule: Q01DX001 (ip), vehicle: saline): 96 % of control | T/C (endpoint: mean survival time, dose: 200.0 mg/kg/injection, schedule: Q01DX001 (ip), vehicle: saline): 93 % of control | T/C (endpoint: mean survival time, dose: 400.0 mg/kg/injection, schedule: Q01DX001 (ip), vehicle: saline): 98 % of control

CCCCNC(C)C1(O)Cc2c(O)c3c(c(O)c2C(OC2CC(N)C(O)C(C)O2)C1)C(=O)c1c(OC)cccc1C3=O (stereo not given)
T/C (endpoint: mean survival time, dose: 10.0 mg/kg/injection, schedule: Q01DX009 (ip), vehicle: water): 121 % of control | T/C (endpoint: mean survival time, dose: 160.0 mg/kg/injection, schedule: Q01DX009 (ip), vehicle: water): 119 % of control
